Values after ≈ are worked out from the molar mass of the structure shown.
Columns and labels:
Assay type in all cases: functional
[1] = tested on: Staphylococcus epidermidis; test: Antibacterial activity against Staphylococcus epidermidis ATCC 51625 assessed as inhibition of bacterial growth incubated for 24 hrs by optical density based analysis
Klebsiella pneumoniae = test: Antibacterial activity against Klebsiella pneumoniae assessed as inhibition of bacterial growth incubated for 18 hrs by p-iodonitrotetrazolium chloride dye based colorimetric assay
Pseudomonas aeruginosa = test: Antibacterial activity against Pseudomonas aeruginosa assessed as inhibition of bacterial growth incubated for 18 hrs by p-iodonitrotetrazolium chloride dye based colorimetric assay
Escherichia coli [2] = test: Antibacterial activity against Escherichia coli assessed as inhibition of bacterial growth incubated for 18 hrs by p-iodonitrotetrazolium chloride dye based colorimetric assay
Enterobacter cloacae = test: Antibacterial activity against Enterobacter cloacae assessed as inhibition of bacterial growth incubated for 18 hrs by p-iodonitrotetrazolium chloride dye based colorimetric assay
Staphylococcus aureus [3] = test: Antibacterial activity against Staphylococcus aureus ATCC 25923 assessed as inhibition of bacterial growth incubated for 24 hrs by optical density based analysis
Providencia stuartii = test: Antibacterial activity against Providencia stuartii assessed as inhibition of bacterial growth incubated for 18 hrs by p-iodonitrotetrazolium chloride dye based colorimetric assay
Klebsiella aerogenes = test: Antibacterial activity against Enterobacter aerogenes assessed as inhibition of bacterial growth incubated for 18 hrs by p-iodonitrotetrazolium chloride dye based colorimetric assay
Escherichia coli [4] = test: Antibacterial activity against Escherichia coli ATCC 25922 assessed as inhibition of bacterial growth incubated for 24 hrs by optical density based analysis
Bacillus subtilis = test: Antibacterial activity against Bacillus subtilis ATCC 11774 assessed as inhibition of bacterial growth incubated for 24 hrs by optical density based analysis
Staphylococcus aureus [5] = test: Antibacterial activity against Staphylococcus aureus assessed as inhibition of bacterial growth

SMILES	MIC [1]	MIC (Klebsiella pneumoniae)	MIC (Pseudomonas aeruginosa)	MIC (Escherichia coli [2])	MIC (Enterobacter cloacae)	MIC (Staphylococcus aureus [3])	MIC (Providencia stuartii)	MIC (Klebsiella aerogenes)	MIC (Escherichia coli [4])	MIC (Bacillus subtilis)	MIC (Staphylococcus aureus [5])
CC1(C)C=Cc2c(cc(O)c3c(=O)c4c(oc23)-c2ccc(O)cc2OC(C(C)(C)O)C4)O1 (stereo unspecified) [NEOCYCLOMORUSIN]	> 128 µg/mL	4 µg/mL (≈ 9.16 µM)	4 µg/mL (≈ 9.16 µM)	4 µg/mL (≈ 9.16 µM)	4 µg/mL (≈ 9.16 µM)	64 µg/mL (≈ 147 µM)	4 µg/mL (≈ 9.16 µM)	4 µg/mL (≈ 9.16 µM)	> 128 µg/mL	64 µg/mL (≈ 147 µM)	
COc1cc(O)c2c(=O)c3c(oc2c1)-c1ccc(O)cc1OC(C(C)(C)O)C3 (stereo unspecified)	> 128 µg/mL					128 µg/mL (≈ 333 µM)			> 128 µg/mL	> 128 µg/mL	128 µg/mL (≈ 333 µM)
CC(C)=CCc1c(-c2ccc(O)cc2O)oc2cc3c(c(O)c2c1=O)C=CC(C)(C)O3 [CUDRAFLAVONE B]	16 µg/mL (≈ 38.1 µM)					4 µg/mL (≈ 9.51 µM)			> 128 µg/mL	16 µg/mL (≈ 38.1 µM)	
CC(C)=CCc1c(-c2ccc(O)cc2O)oc2c3c(cc(O)c2c1=O)OC(C)(C)C=C3 [MORUSIN]	8 µg/mL (≈ 19 µM)					8 µg/mL (≈ 19 µM)			> 128 µg/mL	16 µg/mL (≈ 38.1 µM)	
CC1(C)S[C@@H]2[C@H](NC(=O)[C@H](N)c3ccccc3)C(=O)N2[C@H]1C(=O)O [AMPICILLIN]	128 µg/mL (≈ 366 µM)					4 µg/mL (≈ 11.4 µM)			64 µg/mL (≈ 183 µM)	> 128 µg/mL	
NC[C@H]1O[C@H](O[C@H]2[C@H](O)[C@@H](O[C@H]3O[C@H](CO)[C@@H](O)[C@H](N)[C@H]3O)[C@H](N)C[C@@H]2N)[C@H](O)[C@@H](O)[C@@H]1O [KANAMYCIN]	1 µg/mL (≈ 2.06 µM)					4 µg/mL (≈ 8.26 µM)			16 µg/mL (≈ 33 µM)	2 µg/mL (≈ 4.13 µM)	
